Results from ChEMBL document CHEMBL1151710, “Sesquiterpenes from the sponge Axinyssa isabela” (2008).
Active and inactive are the calls of the source. No cut-off for these calls is given here.

Experiments:
MDA-MB-231 [1] = experiment: Cytotoxicity against human MDA-MB-231 cells at 10 ug/ml by SRB assay; format: functional, cell-based
A549 [2] = experiment: Cytotoxicity against human A549 cells at 10 ug/ml by SRB assay; format: functional, cell-based
HT-29 [3] = experiment: Cytotoxicity against human HT-29 cells at 10 ug/ml by SRB assay; format: functional, cell-based
MDA-MB-231 [4] = experiment: Cytotoxicity against human MDA-MB-231 cells by SRB assay; format: functional
A549 [5] = experiment: Cytotoxicity against human A549 cells by SRB assay; format: functional
HT-29 [6] = experiment: Cytotoxicity against human HT-29 cells by SRB assay; format: functional

SMILES	Activity (MDA-MB-231 [1])	Activity (A549 [2])	Activity (HT-29 [3])	GI50 (MDA-MB-231 [4])	GI50 (A549 [5])	GI50 (HT-29 [6])
C[C@H]1CC[C@@H](O)C2=CC(=O)[C@H]3[C@H](C3(C)C)[C@@]21C	inactive	inactive	inactive	–	–	–
C=C(C)[C@]1(OO)CC[C@@]2(C)CCC[C@@](C)(N=C=S)[C@@H]2C1 [AXINISOTHIOCYANATE N]	–	–	–	33.3 µM	32.6 µM	–
C=C(C)[C@]1(O)CC[C@@]2(C)CCC[C@@](C)(N=C=S)[C@@H]2C1	inactive	inactive	inactive	–	–	–
COc1cccc2c1C(=O)c1c(O)c3c(c(O)c1C2=O)C[C@@](O)(C(=O)CO)C[C@@H]3O[C@H]1C[C@H](N)[C@H](O)[C@H](C)O1 [DOXORUBICIN]	–	–	–	0.1 µM	0.1 µM	0.1 µM
C[C@H]1CC[C@H](O)C2=CC(=O)[C@H]3[C@H](C3(C)C)[C@@]21C	inactive	inactive	inactive	–	–	–
CC(C)=CCCC(C)(N=C=S)[C@H]1CC=C(C)CC1 (some centres not stated)	inactive	inactive	inactive	–	–	–
C=C1CCC[C@]2(C)CC[C@@H](C(=C)C)[C@H](N=C=S)[C@@H]12	inactive	inactive	inactive	–	–	–
C[C@H]1CC(=O)C=C2[C@H]3O[C@H]3[C@H]3[C@H](C3(C)C)[C@@]21C [AXINYSONE E]	–	–	–	–	38.7 µM	38.3 µM
C=C(C)[C@H]1CC[C@@]2(C)CCC[C@@](C)(N=C=S)[C@@H]2C1	inactive	inactive	inactive	–	–	–
C[C@H]1CCCC2=CC(=O)[C@H]3[C@H](C3(C)C)[C@@]21C	inactive	inactive	inactive	–	–	–
C[C@H]1CC[C@@H](OO)C2=CC(=O)[C@H]3[C@H](C3(C)C)[C@@]21C	inactive	inactive	inactive	–	–	–
C[C@H]1CCC[C@]2(O)[C@@H](O)C(=O)[C@H]3[C@H](C3(C)C)[C@]12C	inactive	inactive	inactive	–	–	–
C[C@H]1CCCC2=C[C@H](C#N)[C@H]3[C@H](C3(C)C)[C@@]21C	inactive	inactive	inactive	–	–	–
